Where two headings read alike, the source gives them in different places.
Legend:
patients with DLBCL = assay: phase Ia DLBCL extension: tumor response (RECIL 2017); assay type: in vivo, human
Protocol: PFS was measured for the period from the start of treatment to the occurrence of progressive disease or death. Tumor response was measured using RECIST 1.1[28] for patients with solid tumors and RECIL 2017[29] for those with DLBCL. OS was assessed in patients with NUT carcinoma; the OS status was to continue until 12 months after the end of the study.
Supplementary Table 1. […]
• Objective response (OR), defined as complete response (CR) or partial response (PR) with tumor assessment during treatment period for each schedule according to Response Evaluation Criteria in Solid Tumors (RECIST) version 1.1. For DLBCL patients, a minor response according to Response Evaluation Criteria in Lymphoma (RECIL) 2017 was not part of an OR […]
• Progression-free survival (PFS), defined from date of start of BI 894999 to the date of objective disease progression or death, whichever was earlier, with tumor assessment every 2 cycles (every 6 weeks for Schedule B if no delays or as close as possible to the end of the second of the 2 cycles of treatment if there was a delay) during the treatment period […]
AUC0–24, area under the plasma concentration–time curve over the 24-hour dosing interval; AUCτ, ss , area under the plasma concentration–time curve over the dosing interval τ at steady state; AE, adverse event; Cmax, maximal exposure; Cma x , s s , maximal exposure at steady state; DLBCL, diffuse large B- cell lymphoma; DLT, dose-limiting toxicity; mCRPC, metastatic castration-resistant prostate cancer; NUT, nuclear protein in […]

[1] = plasma pharmacokinetics, LC-MS/MS, noncompartmental analysis; assay type: in vivo, human; conditions: for Tmax / AUC(0-t) / Cmax: human, plasma, oral
Protocol: Samples were collected for PK analysis in cycle 1: 5 min pre-dose, 30 min, 1, 2, 3, 4, 6, and 8 h after drug administration on day 1 (schedules B and C) and on day 14 (for schedule B) or day 21 (for schedule C); 5 min pre-dose on days 8 and 12 (for schedule B) and at time of the visit on day 8 (168 h) for schedule C; 5 min pre-dose on day 18 (at time of the visit) for schedule B; and on day 22 (504 and 512 h) and day 29 (at time of the visit) for schedule C. For schedule B, a few additional samples were also taken in cycle 2: 5 min pre-dose, 2, 4, and 8 h on day 1, and 5 min pre-dose on day 2.
BI 894999 plasma concentrations were determined using a validated assay based on liquid chromatography coupled with tandem mass spectrometry. PK parameters were determined by noncompartmental analysis using the Phoenix WinNonlin software (Phoenix 6.3, Certara USA Inc., Princeton, NJ).

BRD4-BD1 = tested on: BRD4-BD1; parameters: method as in PMID 35444289; conditions: read-out: IC50, inhibition of interaction of acetylated histone H4-derived peptide with BRD4-BD1; cited from earlier work

For CNc1nc(-c2nc3ccc(N4CCN(C)CC4)cc3n2Cc2ccccc2)cn2c(C)nnc12 [BI 894999], the patients not assessable (patients with DLBCL; phase Ia DLBCL n = 18) was 27.8%, the “patients with partial response (BOR)” value (patients with DLBCL; phase Ia DLBCL n = 18) was 5.6% and the “patients with progressive disease” value (patients with DLBCL; phase Ia DLBCL n = 18) was 50.0%. The “patients with stable disease” value (patients with DLBCL; phase Ia DLBCL n = 18) was 16.7%, the “duration of response (DOR) of confirmed PR” value (patients with DLBCL; phase Ia DLBCL, one patient) was 49 days and the “Best overall response: complete response” value (patients with DLBCL; phase Ia DLBCL, schedule B) was 0 (0.0) n (%). For the same compound, the “Best overall response: not evaluable” value (patients with DLBCL; phase Ia DLBCL, schedule B) was 5 (35.7) n (%), the “Best overall response: partial response” value (patients with DLBCL; phase Ia DLBCL, schedule B) was 1 (7.1) n (%) and the “Best overall response: progressive disease” value (patients with DLBCL; phase Ia DLBCL, schedule B) was 6 (42.9) n (%). For the same compound, the “Best overall response: stable disease” value (patients with DLBCL; phase Ia DLBCL, schedule B) was 2 (14.3) n (%), the Disease control (patients with DLBCL; phase Ia DLBCL, schedule B) was 3 (21.4) n (%) and the Objective response (patients with DLBCL; phase Ia DLBCL, schedule B) was 1 (7.1) n (%). For the same compound, the “Best overall response: complete response” value (patients with DLBCL; phase Ia DLBCL, schedule C) was 0 (0.0) n (%), the “Best overall response: not evaluable” value (patients with DLBCL; phase Ia DLBCL, schedule C) was 0 (0.0) n (%) and the “Best overall response: partial response” value (patients with DLBCL; phase Ia DLBCL, schedule C) was 0 (0.0) n (%). For the same compound, the “Best overall response: progressive disease” value (patients with DLBCL; phase Ia DLBCL, schedule C) was 3 (75.0) n (%), the “Best overall response: stable disease” value (patients with DLBCL; phase Ia DLBCL, schedule C) was 1 (25.0) n (%) and the Disease control (patients with DLBCL; phase Ia DLBCL, schedule C) was 1 (25.0) n (%). The “Best overall response: complete response” value (patients with DLBCL; phase Ia DLBCL, total) was 0 (0.0) n (%), the “Best overall response: not evaluable” value (patients with DLBCL; phase Ia DLBCL, total) was 5 (27.8) n (%) and the “Best overall response: partial response” value (patients with DLBCL; phase Ia DLBCL, total) was 1 (5.6) n (%). The “Best overall response: progressive disease” value (patients with DLBCL; phase Ia DLBCL, total) was 9 (50.0) n (%), the “Best overall response: stable disease” value (patients with DLBCL; phase Ia DLBCL, total) was 3 (16.7) n (%) and the Disease control (patients with DLBCL; phase Ia DLBCL, total) was 4 (22.2) n (%). The Objective response (patients with DLBCL; phase Ia DLBCL, total) was 1 (5.6) n (%), the Tmax ([1]; 1.5 mg, phase Ia DLBCL, schedule B 1.5 mg, day 1, read-out: tmax median) was 2.02 h and the Tmax ([1]; 1.5 mg, phase Ia DLBCL, schedule B 1.5 mg, day 14, read-out: tmax,ss median) was 2.56 h. It also gave a Tmax ([1]; 2 mg, phase Ia DLBCL, schedule B 2.0 mg, day 1, read-out: tmax median) of 2.01 h, an AUC(0-t) ([1]; 2 mg, phase Ia DLBCL, schedule B 2.0 mg, day 14, read-out: AUC0–24,ss gMean (gCV, %)) of 0.12 µM·h and a Tmax ([1]; 2 mg, phase Ia DLBCL, schedule B 2.0 mg, day 14, read-out: tmax,ss median) of 2.12 h. It also gave a Tmax ([1]; 2 mg, phase Ib solid tumors, schedule B 2.0 mg, day 1, read-out: tmax median) of 2 h, a Tmax ([1]; 2 mg, phase Ib solid tumors, schedule B 2.0 mg, day 14, read-out: tmax,ss median) of 2 h and an AUC(0-t) ([1]; 2.5 mg, phase Ia DLBCL, schedule B 2.5 mg, day 1, read-out: AUC0–24 gMean (gCV, %)) of 0.0533 µM·h. The Tmax ([1]; 2.5 mg, phase Ia DLBCL, schedule B 2.5 mg, day 1, read-out: tmax median) was 2.04 h, the Tmax ([1]; 2.5 mg, phase Ib, schedule B 2.5 mg including NUT carcinoma, day 1, read-out: tmax median) was 2.01 h and the AUC(0-t) ([1]; 2.5 mg, phase Ib, schedule B 2.5 mg including NUT carcinoma, day 14, read-out: AUC0–24,ss gMean (gCV, %)) was 0.125 µM·h. It also gave a Tmax ([1]; 2.5 mg, phase Ib, schedule B 2.5 mg including NUT carcinoma, day 14, read-out: tmax,ss median) of 2 h, an AUC(0-t) ([1]; 4 mg, phase Ia DLBCL, schedule C 4.0/2.0 mg, day 1 after loading dose, read-out: AUC0–24 gMean (gCV, %)) of 0.138 µM·h and a Tmax ([1]; 4 mg, phase Ia DLBCL, schedule C 4.0/2.0 mg, day 1 after loading dose, read-out: tmax median) of 2 h. For the same compound, the AUC(0-t) ([1]; 6 mg, phase Ib, schedule C 6.0/3.0 mg NUT carcinoma only, day 1 after loading dose, read-out: AUC0–24 gMean (gCV, %)) was 0.214 µM·h, the Tmax ([1]; 6 mg, phase Ib, schedule C 6.0/3.0 mg NUT carcinoma only, day 1 after loading dose, read-out: tmax median) was 2 h and the AUC(0-t) ([1]; phase Ib, schedule C 6.0/3.0 mg NUT carcinoma only, day 21, read-out: AUC0–24,ss gMean (gCV, %)) was 0.149 µM·h. For the same compound, the Tmax ([1]; phase Ib, schedule C 6.0/3.0 mg NUT carcinoma only, day 21, read-out: tmax,ss median) was 2.05 h, the Tmax ([1]; single dose day 1 and once-daily multiple doses days 14 or 21, read-out: median time to maximum plasma concentration (tmax)) was ~2 h and the Cmax ([1]; phase Ia DLBCL, schedule B 2.0 mg, day 14, read-out: Cmax,ss gMean (gCV, %)) was 7.67 nM. For the same compound, the Cmax ([1]; phase Ia DLBCL, schedule B 2.5 mg, day 1, read-out: Cmax gMean (gCV, %)) was 4.75 nM, the “dose dependence of plasma concentrations” value ([1]; within a dosing schedule and indication) was “increased with increasing dose” and the IC50 (BRD4-BD1) was 5 ± 3 nM.
